According to ChEMBL document CHEMBL5678818, “Discovery of potent SOS1 inhibitors that block RAS activation via disruption of the RAS-SOS1 interaction” (Proc Natl Acad Sci U S A, 2019):

Assays:
[1] = tested on: Tyrosine-protein kinase ABL1 (Homo sapiens), P00519 [Q252H]; assay: Inhibition of nonphosphorylated ABL1 Q252H mutant (unknown origin) assessed as residual activity at 100 nM by KINOMEscan analysis relative to control
[2] = molecular target: T1, Atypical kinase COQ8B, mitochondrial (Homo sapiens) (UniProt Q96D53); assay: Inhibition of ADCK4 (unknown origin) assessed as residual activity at 100 nM by KINOMEscan analysis relative to control
T1 sequence (whole entry): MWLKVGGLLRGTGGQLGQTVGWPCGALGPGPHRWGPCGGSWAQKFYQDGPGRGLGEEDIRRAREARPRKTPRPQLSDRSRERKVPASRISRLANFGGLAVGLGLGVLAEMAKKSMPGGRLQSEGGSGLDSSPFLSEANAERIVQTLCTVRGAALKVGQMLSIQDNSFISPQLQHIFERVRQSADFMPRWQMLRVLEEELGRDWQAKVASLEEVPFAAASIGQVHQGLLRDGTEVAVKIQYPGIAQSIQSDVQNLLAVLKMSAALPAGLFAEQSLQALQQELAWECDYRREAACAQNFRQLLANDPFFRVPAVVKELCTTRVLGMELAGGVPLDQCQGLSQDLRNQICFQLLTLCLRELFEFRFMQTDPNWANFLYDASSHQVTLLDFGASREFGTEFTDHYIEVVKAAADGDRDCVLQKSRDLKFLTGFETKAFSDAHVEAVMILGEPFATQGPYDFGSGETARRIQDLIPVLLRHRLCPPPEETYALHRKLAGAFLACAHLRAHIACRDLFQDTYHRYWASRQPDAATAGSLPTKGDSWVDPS

[3] = molecular target: Rho-associated protein kinase 1 (Homo sapiens) (UniProt Q13464); assay: Inhibition of ROCK1 (unknown origin) assessed as residual activity at 100 nM by KINOMEscan analysis relative to control
Chain of Rho-associated protein kinase 1 (Homo sapiens) (Q13464 2-1354 limits assumed): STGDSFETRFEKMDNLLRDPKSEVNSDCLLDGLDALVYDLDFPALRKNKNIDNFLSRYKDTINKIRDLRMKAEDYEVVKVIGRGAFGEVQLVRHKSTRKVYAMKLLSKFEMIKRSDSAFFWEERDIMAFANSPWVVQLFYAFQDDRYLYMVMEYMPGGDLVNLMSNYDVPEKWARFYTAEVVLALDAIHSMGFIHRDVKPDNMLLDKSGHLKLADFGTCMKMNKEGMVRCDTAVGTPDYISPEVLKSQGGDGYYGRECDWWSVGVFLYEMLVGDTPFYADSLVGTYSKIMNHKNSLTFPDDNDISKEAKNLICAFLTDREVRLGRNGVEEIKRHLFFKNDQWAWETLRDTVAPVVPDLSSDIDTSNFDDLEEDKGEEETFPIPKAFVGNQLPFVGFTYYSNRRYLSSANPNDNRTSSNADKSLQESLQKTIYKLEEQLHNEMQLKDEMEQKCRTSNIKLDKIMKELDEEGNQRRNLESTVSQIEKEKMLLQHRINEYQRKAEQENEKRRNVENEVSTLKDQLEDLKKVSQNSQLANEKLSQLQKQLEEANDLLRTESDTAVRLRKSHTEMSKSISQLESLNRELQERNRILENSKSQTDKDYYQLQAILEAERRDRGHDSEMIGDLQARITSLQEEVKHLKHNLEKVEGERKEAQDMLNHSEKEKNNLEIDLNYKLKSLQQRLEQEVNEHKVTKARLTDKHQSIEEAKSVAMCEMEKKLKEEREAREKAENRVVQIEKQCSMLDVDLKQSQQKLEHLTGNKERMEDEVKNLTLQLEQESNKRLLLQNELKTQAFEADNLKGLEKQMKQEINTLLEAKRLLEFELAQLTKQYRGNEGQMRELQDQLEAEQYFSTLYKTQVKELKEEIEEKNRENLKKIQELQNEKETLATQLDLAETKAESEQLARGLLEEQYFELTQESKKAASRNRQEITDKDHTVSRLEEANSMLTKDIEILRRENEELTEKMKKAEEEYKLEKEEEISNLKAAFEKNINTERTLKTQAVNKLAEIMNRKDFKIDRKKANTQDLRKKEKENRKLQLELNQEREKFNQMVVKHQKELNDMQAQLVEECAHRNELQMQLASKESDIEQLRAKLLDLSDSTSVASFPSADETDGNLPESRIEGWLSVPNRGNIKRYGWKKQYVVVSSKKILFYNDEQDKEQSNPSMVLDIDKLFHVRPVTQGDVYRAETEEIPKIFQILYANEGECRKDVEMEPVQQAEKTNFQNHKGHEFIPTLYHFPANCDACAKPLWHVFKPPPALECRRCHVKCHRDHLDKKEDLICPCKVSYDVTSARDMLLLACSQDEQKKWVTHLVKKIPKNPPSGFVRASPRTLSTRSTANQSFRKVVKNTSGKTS

[4] = molecular target: T2, Receptor-interacting serine/threonine-protein kinase 4 (Homo sapiens) (UniProt P57078); assay: Inhibition of RIPK4 (unknown origin) assessed as residual activity at 100 nM by KINOMEscan analysis relative to control
T2 sequence (whole entry): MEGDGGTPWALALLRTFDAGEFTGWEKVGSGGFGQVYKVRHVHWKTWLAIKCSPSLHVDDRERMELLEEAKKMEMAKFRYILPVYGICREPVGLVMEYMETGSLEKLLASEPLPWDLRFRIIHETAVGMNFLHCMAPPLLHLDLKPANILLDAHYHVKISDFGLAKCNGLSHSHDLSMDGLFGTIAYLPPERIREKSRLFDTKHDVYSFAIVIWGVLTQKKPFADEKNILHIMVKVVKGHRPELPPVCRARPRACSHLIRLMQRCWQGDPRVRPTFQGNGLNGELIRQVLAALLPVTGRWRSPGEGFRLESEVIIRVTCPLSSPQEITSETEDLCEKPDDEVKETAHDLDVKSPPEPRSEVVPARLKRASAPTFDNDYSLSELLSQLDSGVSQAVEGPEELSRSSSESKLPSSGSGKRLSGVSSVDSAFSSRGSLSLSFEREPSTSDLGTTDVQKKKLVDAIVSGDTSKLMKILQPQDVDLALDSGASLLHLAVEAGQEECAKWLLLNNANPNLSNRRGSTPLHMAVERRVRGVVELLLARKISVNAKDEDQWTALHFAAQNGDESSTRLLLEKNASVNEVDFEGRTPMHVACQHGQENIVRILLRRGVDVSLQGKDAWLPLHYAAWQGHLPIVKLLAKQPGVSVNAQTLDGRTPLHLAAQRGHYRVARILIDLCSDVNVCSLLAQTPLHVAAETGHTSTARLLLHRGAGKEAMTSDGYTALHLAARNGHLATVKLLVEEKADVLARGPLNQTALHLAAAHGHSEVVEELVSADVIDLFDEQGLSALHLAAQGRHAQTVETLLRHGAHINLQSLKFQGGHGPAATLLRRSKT

[5] = molecular target: T3, Myotonin-protein kinase (Homo sapiens) (UniProt Q09013); assay: Inhibition of DMPK (unknown origin) assessed as residual activity at 100 nM by KINOMEscan analysis relative to control
T3 sequence (whole entry): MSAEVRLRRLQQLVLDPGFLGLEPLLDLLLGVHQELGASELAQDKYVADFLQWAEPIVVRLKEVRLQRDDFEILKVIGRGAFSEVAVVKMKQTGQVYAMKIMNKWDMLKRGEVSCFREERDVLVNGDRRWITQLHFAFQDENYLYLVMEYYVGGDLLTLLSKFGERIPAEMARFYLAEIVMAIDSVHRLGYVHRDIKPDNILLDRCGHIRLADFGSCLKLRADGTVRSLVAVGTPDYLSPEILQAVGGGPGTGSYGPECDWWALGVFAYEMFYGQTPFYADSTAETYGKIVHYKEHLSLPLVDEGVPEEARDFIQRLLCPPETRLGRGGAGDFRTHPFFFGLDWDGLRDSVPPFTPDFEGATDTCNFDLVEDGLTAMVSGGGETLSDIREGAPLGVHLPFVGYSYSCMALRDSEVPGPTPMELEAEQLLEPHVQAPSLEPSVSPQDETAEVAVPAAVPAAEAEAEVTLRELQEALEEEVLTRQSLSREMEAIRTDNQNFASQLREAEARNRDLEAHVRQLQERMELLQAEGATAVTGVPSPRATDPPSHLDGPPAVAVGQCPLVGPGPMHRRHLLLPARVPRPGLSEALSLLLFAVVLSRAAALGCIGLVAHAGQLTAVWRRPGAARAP

[6] = tested on: Mast/stem cell growth factor receptor Kit (Homo sapiens), P10721 [D816V]; assay: Inhibition of KIT D816V mutant (unknown origin) assessed as residual activity at 100 nM by KINOMEscan analysis relative to control
Chain of Mast/stem cell growth factor receptor Kit (Homo sapiens), P10721 [D816V] (P10721 whole entry D816V): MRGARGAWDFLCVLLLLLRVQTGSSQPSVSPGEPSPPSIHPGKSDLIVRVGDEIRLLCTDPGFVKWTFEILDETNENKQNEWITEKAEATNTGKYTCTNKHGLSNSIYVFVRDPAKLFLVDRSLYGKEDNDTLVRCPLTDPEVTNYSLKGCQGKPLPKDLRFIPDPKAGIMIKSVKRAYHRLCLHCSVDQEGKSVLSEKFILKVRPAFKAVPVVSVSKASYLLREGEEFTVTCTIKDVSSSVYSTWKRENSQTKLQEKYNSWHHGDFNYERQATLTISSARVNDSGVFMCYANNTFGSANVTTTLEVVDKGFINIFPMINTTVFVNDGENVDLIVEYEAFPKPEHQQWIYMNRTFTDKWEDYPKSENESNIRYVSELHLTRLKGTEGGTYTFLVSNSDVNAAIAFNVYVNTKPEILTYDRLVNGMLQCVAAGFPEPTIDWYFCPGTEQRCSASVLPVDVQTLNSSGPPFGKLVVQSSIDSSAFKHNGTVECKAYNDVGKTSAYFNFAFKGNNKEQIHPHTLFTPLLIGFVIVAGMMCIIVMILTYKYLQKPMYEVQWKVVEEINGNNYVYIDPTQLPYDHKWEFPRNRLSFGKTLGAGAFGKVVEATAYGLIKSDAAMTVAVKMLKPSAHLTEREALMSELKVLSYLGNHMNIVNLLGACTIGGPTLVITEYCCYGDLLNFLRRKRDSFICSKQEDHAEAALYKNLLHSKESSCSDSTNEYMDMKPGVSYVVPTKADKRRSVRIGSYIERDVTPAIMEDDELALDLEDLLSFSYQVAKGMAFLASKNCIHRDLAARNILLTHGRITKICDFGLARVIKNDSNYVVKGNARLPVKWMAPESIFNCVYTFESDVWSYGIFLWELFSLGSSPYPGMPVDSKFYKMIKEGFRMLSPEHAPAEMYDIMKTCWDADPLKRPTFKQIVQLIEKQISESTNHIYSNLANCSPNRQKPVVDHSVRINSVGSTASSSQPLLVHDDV

[7] = molecular target: Dual specificity protein kinase CLK1 (Homo sapiens) (UniProt P49759); assay: Inhibition of CLK1 (unknown origin) assessed as residual activity at 100 nM by KINOMEscan analysis relative to control
Chain of Dual specificity protein kinase CLK1 (Homo sapiens) (P49759 whole entry, looked up): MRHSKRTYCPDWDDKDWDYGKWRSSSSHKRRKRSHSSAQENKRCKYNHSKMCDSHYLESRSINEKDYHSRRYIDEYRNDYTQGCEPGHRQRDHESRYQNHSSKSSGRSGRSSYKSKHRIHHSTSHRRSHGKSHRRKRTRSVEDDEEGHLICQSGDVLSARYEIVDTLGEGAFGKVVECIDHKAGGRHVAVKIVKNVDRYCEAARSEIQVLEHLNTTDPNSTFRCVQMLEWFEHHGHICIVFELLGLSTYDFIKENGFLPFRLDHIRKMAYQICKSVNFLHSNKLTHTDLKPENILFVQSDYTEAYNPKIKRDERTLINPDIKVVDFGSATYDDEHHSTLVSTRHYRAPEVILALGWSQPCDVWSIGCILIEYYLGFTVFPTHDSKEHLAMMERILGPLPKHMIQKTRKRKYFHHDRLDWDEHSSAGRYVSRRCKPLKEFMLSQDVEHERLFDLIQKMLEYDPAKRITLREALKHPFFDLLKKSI

[8] = molecular target: T4, TGF-beta receptor type-1 (Homo sapiens) (UniProt P36897); assay: Inhibition of TGFBR1 (unknown origin) assessed as residual activity at 100 nM by KINOMEscan analysis relative to control
T4 sequence (whole entry): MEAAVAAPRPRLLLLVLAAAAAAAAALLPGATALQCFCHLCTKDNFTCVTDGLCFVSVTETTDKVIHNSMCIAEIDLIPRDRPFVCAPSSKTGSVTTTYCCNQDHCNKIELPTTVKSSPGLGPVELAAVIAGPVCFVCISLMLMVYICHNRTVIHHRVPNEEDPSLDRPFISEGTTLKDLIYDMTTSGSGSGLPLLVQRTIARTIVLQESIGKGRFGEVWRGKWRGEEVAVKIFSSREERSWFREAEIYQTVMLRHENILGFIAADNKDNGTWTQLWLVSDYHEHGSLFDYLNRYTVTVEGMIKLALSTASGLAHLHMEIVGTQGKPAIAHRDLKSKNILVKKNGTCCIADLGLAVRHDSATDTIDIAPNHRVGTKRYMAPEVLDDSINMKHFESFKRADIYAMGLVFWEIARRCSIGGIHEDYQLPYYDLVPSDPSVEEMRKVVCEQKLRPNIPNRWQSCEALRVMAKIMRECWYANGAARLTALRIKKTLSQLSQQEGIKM

SMILES: COc1cc2ncnc(N[C@H](C)c3cccc4ccccc34)c2cc1OC
- Activity [1]: 100%
- Activity [2]: 61%
- Activity [3]: 77%
- Activity [4]: 77%
- Activity [5]: 100%
- Activity [6]: 73%
- Activity [7]: 91%
- Activity [8]: 83%
